# According to patent publication US20190365906A1, “RANDOM COPOLYMER THERAPEUTIC AGENT CARRIERS AND ASSEMBLIES THEREOF” (University of Washington through its Center for …, priority 2013, published 2019):
# Tested on: HeLa cells
# Assay: Live-cell fluorescence microscopy of intracellular distribution of transferrin-polymer conjugates
# Type: cell-based, human
# Settings: 1 hour at 37° C.
# Description: The intracellular distribution of fluorescently labeled transferrin-polymer conjugates was evaluated in cells using live-cell fluorescence microscopy. Cells were seeded in chamber slides at a concentration of 5000 cells/well. After allowing the cells adhere for 18 hours the media was replaced with fresh media containing the appropriate concentration of the copolymer-transferrin conjugates. Thirty minutes prior to imaging Hoechst (5 μg/mL) was added to the media and allowed to incubate at 37° C. After this time, the media was carefully aspirated and replaced with PBS. Immediately prior to imaging individual wells were aspirated and then treated with 2 μL of a 10 mg/mL cell mask stock in 200 μL of ice cold PBS. After 3 minutes the PBS was removed and washed three times with additional ice cold PBS. The mediChamber slides were placed on a Live-Cell Fluorescence Microscope (Nikon Ti-E) equipped with an environmental control chamber. […] After image acquisition, image stacks were deconvolved using object-based measurement software, Velocity (Perkin Elmer), to remove out-of focus fluorescence for the identification of conjugate containing compartments. To deconvolved image stacks, point spread functions were calculated for the green, blue, and deep red channel and applied using 25 iterations to reach a near 100 percent confidence interval. […]
substance,measurement,value
fluorescently (ALEXA 488) labeled Transferrin,intracellular localisation of fluorescence,strongly localized within endosomes/lysosomes
